Tests used:
Format in all cases: functional, LLC-MK2
[1] = test system: Chlamydia trachomatis; experiment: Antimicrobial activity against Chlamydia trachomatis serovar D infected in […] monolayers assessed as reduction in number of microbial inclusions after 48 hrs
[2] = test system: Chlamydia trachomatis; experiment: Antimicrobial activity against Chlamydia trachomatis serovar E infected in […] monolayers assessed as reduction in number of microbial inclusions after 48 hrs
[3] = test system: Chlamydia trachomatis; experiment: Antimicrobial activity against Chlamydia trachomatis serovar F infected in […] monolayers assessed as reduction in number of microbial inclusions after 48 hrs
[4] = test system: Chlamydia trachomatis; experiment: Antimicrobial activity against Chlamydia trachomatis serovar G infected in […] monolayers assessed as reduction in number of microbial inclusions after 48 hrs
[5] = test system: Chlamydia trachomatis; experiment: Antimicrobial activity against Chlamydia trachomatis serovar H infected in […] monolayers assessed as reduction in number of microbial inclusions after 48 hrs
[6] = test system: Chlamydia trachomatis; experiment: Antimicrobial activity against Chlamydia trachomatis serovar I infected in […] monolayers assessed as reduction in number of microbial inclusions after 48 hrs
[7] = test system: Chlamydia trachomatis; experiment: Antimicrobial activity against Chlamydia trachomatis serovar J infected in […] monolayers assessed as reduction in number of microbial inclusions after 48 hrs
[8] = test system: Chlamydia trachomatis; experiment: Antimicrobial activity against Chlamydia trachomatis serovar K infected in […] monolayers assessed as reduction in number of microbial inclusions after 48 hrs
[9] = test system: Chlamydia trachomatis; experiment: Bactericidal activity against Chlamydia trachomatis serovar D infected in […] monolayers assessed as reduction in number of microbial inclusions after 48 hrs
[10] = test system: Chlamydia trachomatis; experiment: Bactericidal activity against Chlamydia trachomatis serovar E infected in […] monolayers assessed as reduction in number of microbial inclusions after 48 hrs
[11] = test system: Chlamydia trachomatis; experiment: Bactericidal activity against Chlamydia trachomatis serovar F infected in […] monolayers assessed as reduction in number of microbial inclusions after 48 hrs
[12] = test system: Chlamydia trachomatis; experiment: Bactericidal activity against Chlamydia trachomatis serovar G infected in […] monolayers assessed as reduction in number of microbial inclusions after 48 hrs
[13] = test system: Chlamydia trachomatis; experiment: Bactericidal activity against Chlamydia trachomatis serovar H infected in […] monolayers assessed as reduction in number of microbial inclusions after 48 hrs
[14] = test system: Chlamydia trachomatis; experiment: Bactericidal activity against Chlamydia trachomatis serovar I infected in […] monolayers assessed as reduction in number of microbial inclusions after 48 hrs
[15] = test system: Chlamydia trachomatis; experiment: Bactericidal activity against Chlamydia trachomatis serovar J infected in […] monolayers assessed as reduction in number of microbial inclusions after 48 hrs
[16] = test system: Chlamydia trachomatis; experiment: Bactericidal activity against Chlamydia trachomatis serovar K infected in […] monolayers assessed as reduction in number of microbial inclusions after 48 hrs
[17] = test system: Chlamydia trachomatis; experiment: Antimicrobial activity against Chlamydia trachomatis Ic Cal-8 serovar D infected in […] monolayers assessed as reduction in number of microbial inclusions after 48 hrs
[18] = test system: Chlamydia trachomatis; experiment: Antimicrobial activity against Chlamydia trachomatis Bour serovar E infected in […] monolayers assessed as reduction in number of microbial inclusions after 48 hrs
[19] = test system: Chlamydia trachomatis; experiment: Antimicrobial activity against Chlamydia trachomatis 580 serovar H infected in […] monolayers assessed as reduction in number of microbial inclusions after 48 hrs
[20] = test system: Chlamydia trachomatis; experiment: Antimicrobial activity against Chlamydia trachomatis UW-36 serovar J infected in […] monolayers assessed as reduction in number of microbial inclusions after 48 hrs; conditions: J/UW-36, 48 h

Structure (SMILES)	MIC [1]	MIC [2]	MIC [3]	MIC [4]	MIC [5]	MIC [6]	MIC [7]	MIC [8]	MIC [17]	MIC [18]	MIC [19]	MBC [9]	MBC [10]	MBC [11]	MBC [12]	MBC [13]	MBC [14]	MBC [15]	MBC [16]	MBC [17]	further results
C[C@H]1COc2c(N3CCN(C)CC3)c(F)cc3c(=O)c(C(=O)O)cn1c23.C[C@H]1COc2c(N3CCN(C)CC3)c(F)cc3c(=O)c(C(=O)O)cn1c23.O [LEVOFLOXACIN]	0.5 µg/mL	0.5 µg/mL	0.5 µg/mL	0.25 µg/mL	0.5 µg/mL	0.5 µg/mL	0.5 µg/mL	0.5 µg/mL	0.5 µg/mL	0.5 µg/mL	0.5 µg/mL	0.5 µg/mL	0.5 µg/mL	0.5 µg/mL	0.25 µg/mL	0.5 µg/mL	0.5 µg/mL	0.5 µg/mL	0.5 µg/mL	0.5 µg/mL	MBC [18]: 0.5 µg/mL; MBC [19]: 0.5 µg/mL; MBC [20]: 0.5 µg/mL; MIC [20]: 0.5 µg/mL
CC[C@H]1OC(=O)[C@H](C)[C@@H](O[C@H]2C[C@@](C)(OC)[C@@H](O)[C@H](C)O2)[C@H](C)[C@@H](O[C@@H]2O[C@H](C)C[C@H](N(C)C)[C@H]2O)[C@](C)(O)C[C@@H](C)C(=O)[C@H](C)[C@@H](O)[C@]1(C)O [ERYTHROMYCIN]	0.5 µg/mL	0.5 µg/mL	0.5 µg/mL	0.5 µg/mL	0.5 µg/mL	0.5 µg/mL	1 µg/mL	0.5 µg/mL	0.5 µg/mL	0.5 µg/mL	1 µg/mL	1 µg/mL	1 µg/mL	1 µg/mL	1 µg/mL	1 µg/mL	1 µg/mL	2 µg/mL	1 µg/mL	1 µg/mL	MIC [20]: 0.5 µg/mL

Continued by falling MIC [1], values first:

MIC [1]	MIC [2]	MIC [3]	MIC [4]	MIC [5]	MIC [6]	MIC [7]	MIC [8]	MIC [17]	MIC [18]	MIC [19]	Structure (SMILES)	MBC [9]	MBC [10]	MBC [11]	MBC [12]	MBC [13]	MBC [14]	MBC [15]	MBC [16]	MBC [17]	further results
0.25 µg/mL	0.25 µg/mL	0.5 µg/mL	0.5 µg/mL	0.25 µg/mL	0.5 µg/mL	0.25 µg/mL	0.5 µg/mL	0.25 µg/mL	0.25 µg/mL	0.25 µg/mL	CC[C@H]1OC(=O)[C@H](C)[C@@H](O[C@H]2C[C@@](C)(OC)[C@@H](O)[C@H](C)O2)[C@H](C)[C@@H](O[C@@H]2O[C@H](C)C[C@H](N(C)C)[C@H]2O)[C@](C)(O)C[C@@H](C)CN(C)[C@H](C)[C@@H](O)[C@]1(C)O [AZITHROMYCIN]	0.5 µg/mL	1 µg/mL	0.5 µg/mL	1 µg/mL	1 µg/mL	1 µg/mL	0.5 µg/mL	0.5 µg/mL	1 µg/mL	MIC [20]: 0.5 µg/mL
0.03 µg/mL	0.03 µg/mL	0.03 µg/mL	0.03 µg/mL	0.03 µg/mL	0.06 µg/mL	0.06 µg/mL	0.03 µg/mL	0.03 µg/mL	0.03 µg/mL	0.06 µg/mL	C[C@H]1c2cccc(O)c2C(=O)C2=C(O)[C@]3(O)C(=O)C(C(N)=O)=C(O)[C@@H](N(C)C)[C@@H]3[C@@H](O)[C@@H]21.O [DOXYCYCLINE]	0.06 µg/mL	0.06 µg/mL	0.06 µg/mL	0.06 µg/mL	0.06 µg/mL	0.06 µg/mL	0.06 µg/mL	0.06 µg/mL	0.06 µg/mL	MIC [20]: 0.5 µg/mL
0.03 µg/mL	0.015 µg/mL	0.015 µg/mL	0.03 µg/mL	0.03 µg/mL	0.015 µg/mL	0.03 µg/mL	0.015 µg/mL	0.03 µg/mL	0.03 µg/mL	0.06 µg/mL	CC[C@H]1OC(=O)[C@H](C)[C@@H](O[C@H]2C[C@@](C)(OC)[C@@H](O)[C@H](C)O2)[C@H](C)[C@@H](O[C@@H]2O[C@H](C)C[C@H](N(C)C)[C@H]2O)[C@](C)(OC)C[C@@H](C)C(=O)[C@H](C)[C@@H](O)[C@]1(C)O [CLARITHROMYCIN]	0.03 µg/mL	0.03 µg/mL	0.03 µg/mL	0.06 µg/mL	0.06 µg/mL	0.03 µg/mL	0.06 µg/mL	0.03 µg/mL	0.06 µg/mL	MIC [20]: 0.06 µg/mL
